Each structure is given as a SMILES string. The source made the active and inactive calls. No cut-off for these calls is given here.

The assay has as its system J774.1. As to the kind of experiment: Inhibition of LPS-stimulated nitric oxide production in J774.1 cells. The class given is functional, cell-based. As to conditions: Mus musculus.
Regarding `CC(=O)N[C@H]1[C@H](O[C@H]2[C@H](O[C@H]3O[C@H](C)[C@H](O)[C@H](O)[C@H]3O)[C@@H](NC(C)=O)[C@H](OCC[Si](C)(C)C)O[C@@H]2CO)O[C@H](CO)[C@H](O)[C@@H]1O`, the outcome was Active. As for `CCCCCCCCCCCCCCC(CCCCCCCCCCCCCC)CO[C@@H]1O[C@H](CO)[C@@H](O[C@@H]2O[C@H](CO)[C@H](O)[C@H](O)[C@H]2NC(C)=O)[C@H](O[C@H]2O[C@H](C)[C@H](O)[C@H](O)[C@H]2O)[C@H]1NC(C)=O`, the result was Active.

With `CCCCCCCCCCCCCCC(CCCCCCCCCCCCCC)CO[C@@H]1O[C@H](CO)[C@@H](O[C@@H]2O[C@H](CO)[C@H](O)[C@H](O)[C@H]2O)[C@H](O[C@H]2O[C@H](C)[C@H](O)[C@H](O)[C@H]2O)[C@H]1NC(C)=O`, the result was Active. The same measure for `CCCCCCCCCCCCCCC(CCCCCCCCCCCCCC)CO[C@@H]1O[C@H](CO)[C@@H](O[C@@H]2O[C@H](CO)[C@H](O)[C@H](O)[C@H]2NC(C)=O)[C@H](O[C@H]2O[C@@H](C)[C@@H](O)[C@@H](O)[C@@H]2O)[C@H]1NC(C)=O` (stereo in doubt): “Active”.

These data come from ChEMBL document CHEMBL1137487, “Synthesis and biological activities of glycosphingolipid analogues from marine sponge Aplysinella rhax” (Bioorg Med Chem Lett, 2007).
